From US6610649B2, “Insulin C-peptides” (Creative Peptides Sweden AB, priority 1996, dated 2003)

Columns and labels:
Na^+K^+ATPase = assay: Stimulation of Na+K+ATPase activity of rat renal tubule cells (microdissected proximal convoluted tubules, 32P-ATP with or without ouabain); format: cell-based; details: for relative stimulatory activity on Na^+K^+ATPase activity: 5-10^−7 M peptide, rat C-peptide 1 at the same concentration set at 100%, tubules incubated 30 minutes at room temperature; for stimulation of Na^+K^+ATPase activity compared with whole C-peptide (in words): renal tubule cells in vitro; for activity of peptides containing D-amino acid isomers (in words): Na^+K^+ATPase of rat renal tubule segments
Procedure: Fragments of the invention have been proven to stimulate Na^+K^+ATPase activity to varying extent. […] As much as 90% of the effect is achieved within 3 minutes. […] Combinations of Peptides A-D with Peptides E or F result in a stimulation of the enzyme activity that is greater than that for either peptide alone. For detailed examples of the stimulatory effects of the above peptides, see Example 1, below.
In the case of peptide A certain studies on Na^+K^+ATPase activity, studying the ability of the peptide fragments to stimulate the activity of Na^+K^+ATPase of rat renal tubule segments, have shown that one or more of the central tri-glycine residues may be important, and preferred peptide fragments, where peptide A is concerned, thus include at least one, and more preferably, at least two, of the central tri-glycine residues. Thus, in addition to peptides B, C and D mentioned above, representative exemplary peptide fragments include GGGPGAG (SEQ ID NO. 8), GGGPG (SEQ ID No. 9), GGGP (SEQ ID NO. 10), GGP and GGPG (SEQ ID NO. 11).
The stimulatory effect of Peptides A-F on Na^+K^+ATPase activity of rat renal tubule cells was examined. Single proximal convoluted tubules were prepared from rat kidneys by micro-dissection. The tubules were incubated for 30 minutes at room temperature with either of Peptides A-F or rat C-peptide 1. Na^+K^+ATPase activity was then measured following exposure of the tubules to hypotonic shock and incubation for 15 minutes in a medium containing ^32P-ATP in the presence or absence of oubain.
The stimulatory activity of 5-10^−7 M rat C-peptide 1 was set at 100%. For the same concentration of Peptides A-F the following relative activities were obtained: […]

[1] = system: cell surface of human renal tubule cells (C-peptide binding site); assay: Binding of rhodamine-labelled C-peptide to cultured human renal tubule cells, by fluorescence correlation spectroscopy; details: for effect of preincubation on binding of fluorescently labelled C-peptide (in words): preincubation of cells with the unlabelled peptide
Procedure: When fluorescently labelled C-peptide is incubated with cells it binds to the cell surface. […] For a detailed example of the binding of Fragment E see Example 28, below.
The specific binding of Peptide E to the cell surface is illustrated as follows. Human biosynthetic C-peptide (Eli-Lilly, Inc., Indianapolis, USA) was labelled with tetramethylrhodamine using the activated reagent tetramethylrhodamine succinimidyl ester (FluoReporter® Protein labelling kit, Art. no. F-6163; Molecular Probes Europe BV, Leiden, Netherlands). The coupling reaction was performed at pH 8.3 (0.1 M NaHCO3 buffer) with a five-fold stoichiometrical excess of activated reagent to C-peptide. The tetramethylrhodamine group has absorption/emission maxima at 555/580 nm, respectively and is incorporated in the N-terminus of the C-peptide. Labelled C-peptides were purified by gel filtration (desalting against 50 mM phosphate buffer, 0.1 M NaCl, pH 7.4) on a NAP-5 column; Pharmacia Biotech Uppsala, Sweden) and subsequently by preparative reverse phase chromatography (250 mm Kromasil C8 column, diam. 4.6 mm, 7 μm particle size, 10 nm pore size, Eka-Nobel, Surte, Sweden) using a 1090 Hewlett Packard HPLC chromatography system (Grenoble, France) (FIG. 1). Eluted material was immediately adjusted to pH 8 by addition of ammonia and subsequently lyophilized.
Cultured human renal tubule cells (proximal convoluted tubules, PCT) were incubated with the rhodamine labelled C-peptide synthesized as described above. The cells were prepared from the healthy part of a human kidney removed surgically because of hypernephroma. The outer 150 μm of the renal cortex was removed in a microtome and incubated in a collagenase solution (0.05%) at 37° C. for 15 minutes. A tissue suspension was centrifuged and rinsed twice with 0.01% soybean trypsin inhibitor-solution (Gibco Laboratories, Grand Island, N.Y., USA) and a concentrate of PCT fragments and PCT cells were plated onto glass cover slips. The cells were cultured in Dulbecco's Modified Eagle's Medium [DMEM, 20 mmol/l 4-(2-hydroxyethyl)-1-piperazineethane sulphoric acid (Hepes), 24 mmol/l NaHCO3 50,000 IU/l penicillin and 50 mg/l streptomycin, pH 7.4] with 10% fetal bovine serum (Gibco) in an incubator at 37° C. with 95% O2, and 5% CO2. After 28 hours in culture the medium was changed to DMEM with 1% fetal bovine serum. The cells were examined approximately 18-36 hours later.
The interaction between C-peptide and the cell surface of the tubule cells was recorded using fluorescence correlation spectroscopy (11). […] In contrast, when the cells were preincubated with 5 μM of Peptide E, C-peptide binding after 50 minutes was no more than 12%.

Substance | relative stimulatory activity on Na^+K^+ATPase activity (Na^+K^+ATPase) | effect of preincubation on binding of fluorescently labelled C-peptide (in words) [1] | also measured
ELGGGP [Peptide C, fragment of Peptide A] | 46±3% |  | 
ELGGGPGAG [Peptide A, fragment of human insulin C-peptide] | 88±3% |  | 
GSLQ [Peptide F, fragment of Peptide E] | 96±2% | prevent binding of the fluorescently marked C-peptide | stimulation of Na^+K^+ATPase activity compared with whole C-peptide (in words) (Na^+K^+ATPase): comparable to or greater than that for the whole molecule
EAEDLQVGQVELGGGPGAGSLQPLALEGSLQ (N-terminal tetramethylrhodamine label) [C-peptide, human biosynthetic C-peptide (Eli-Lilly)] |  | prevents binding of the fluorescently labelled C-peptide | C-peptide bound to the cell surface ([1]; C-peptide 5 nM, within 50 minutes, no competitor): 92%
GGPGA [Peptide D, fragment of Peptide A] | 65±4% |  | 
EGSLQ [Peptide E, C-terminal fragment of human insulin C-peptide] | 110±3% | prevent binding of the fluorescently marked C-peptide | stimulation of Na^+K^+ATPase activity compared with whole C-peptide (in words) (Na^+K^+ATPase): comparable to or greater than that for the whole molecule; C-peptide remaining bound after later addition of the peptide ([1]; C-peptide bound for 50 minutes, then peptide added, within 4 hours): 14%; C-peptide binding after 50 minutes ([1]; cells preincubated with 5 μM of the peptide, C-peptide 5 nM): no more than 12%
D,L-LG |  |  | activity of peptides containing D-amino acid isomers (in words) (Na^+K^+ATPase): active
D-LG |  |  | activity of peptides containing D-amino acid isomers (in words) (Na^+K^+ATPase): active
ELGG [Peptide B, fragment of Peptide A] | 36±2% |  | 
